Measured values reported in article PMC3763812 (Chemical research in toxicology, 2013).
Entries after “also recorded” stand apart in the source; their conditions may differ.

Columns and labels:
[1] = test system: ds-DNA in DNA/RuPVP/1B1 films (cyt P450 1B1 supersomes); test: ECL genotoxicity array, DNA/RuPVP/1B1 films; type: biochemical, human; conditions: 25 μM B[a]P or 50 μM B[ghi]P with NADPH
[2] = test system: ds-DNA in DNA/RuPVP/1A2 films (cyt P450 1A2 supersomes); test: ECL genotoxicity array, DNA/RuPVP/1A2 films; type: biochemical, human; conditions: 25 μM B[a]P or 50 μM B[ghi]P with NADPH
[3] = test system: DNA in PDDA/supersomes/PDDA/DNA biocolloids (1A1 and 1B1 supersomes); type: biochemical, human; conditions: 20-mins reaction of B[ghi]P with biocolloid enzyme/DNA reactors
[4] = test system: ds-DNA with cyt P4501A1, 1B1 and 1A2 supersomes; conditions: electro-optical toxicity screening arrays
[5] = with exogenous activation; cited from earlier work
[6] = test system: mouse skin; conditions: cited from earlier work
[7] = test system: DNA; conditions: activated by light without metabolic activation; cited from earlier work
[8] = test system: DNA; conditions: in vivo and in vitro; cited from earlier work

c1cc2ccc3ccc4ccc5cccc6c(c1)c2c3c4c56 [B[ghi]P, benzo[ghi]perylene]
Normalized ECL turnover rate (R) [1]: 34.3 μg^−1•protein•min^−1•mM
Normalized ECL turnover rate (R) [2]: 23.3 μg^−1•protein•min^−1•mM
Detection of DNA adducts of B[ghi]P 3,4-oxide (mass transitions of Table 3) [3]: no peaks were found
Lower rate of DNA damage by B[ghi]P metabolites than benzo[a]pyrene [4]: 3 fold
Mutagenicity in the Ames test [5]: displays mutagenicity
Tumor initiation [6]: not found to initiate tumors; also recorded: negative
DNA damage in Comet assays [7]: yielded DNA damage
Binding of active metabolites to DNA [8]: active metabolites can bind to DNA
